{"source": "patent US5902794A", "about": "(priority 1997, dated 1999)", "key": {"[1]": {"tested_on": "breast (MCF-7) and (LS-174T) colon cancer cell lines", "assay": "growth inhibition of breast (MCF-7) and colon (LS-174T) cancer cell lines", "format": "cell-based, human", "conditions": "50 micromolar"}, "[2]": {"tested_on": "R^I cAMP receptor protein (MDA-MB-231)", "assay": "photoaffinity labelling of R^I cAMP receptor protein, MDA-MB-231", "format": "cell-based, human", "conditions": "1 mM, 3 days; control 1.0", "procedure": "(§1) M is marker proteins of known molecular weight.\n(§2) The incubations were carried out at 23° C. for 60 minutes in 96-well immunoplates. The reaction mixtures were then irradiated for 30 seconds at 254 nm, placing a Mineralite UVS-11 hand lamp directly onto the plate. The samples were mixed with 25 microliters of 3× sample buffer (3% SDS, 15% beta-mercaptoethanol, 30 mM Tris, 30% glycerol, 1% bromophenol blue saturated solution), boiled for 3 minutes, and centrifuged at 700×g for five minutes. The samples containing 50-100 micrograms of protein were subjected to 0.05% SDS-12% PAGE. The gels were fixed, dried, and exposed to X-ray films overnight. The protein concentrations were determined by the method of Lowry et al., (J. Biol. Chem. 193: 265-275, 1951) with bovine serum albumin as standard.\n(§3) The levels of the receptor proteins are expressed relative to the R^I level in the untreated control cells of MDA-MB-231 and LS-174T, which are each set equal to 1.0 O.D.; the scale was expanded to differentiate the lower intensity bands."}, "[3]": {"tested_on": "R^II cAMP receptor protein (MDA-MB-231)", "assay": "photoaffinity labelling of R^II cAMP receptor protein, MDA-MB-231", "format": "cell-based, human", "conditions": "1 mM, 3 days; relative to control R^I", "procedure": "as §1, §2, §3"}, "[4]": {"tested_on": "R^I cAMP receptor protein (LS-174T)", "assay": "photoaffinity labelling of R^I cAMP receptor protein, LS-174T", "format": "cell-based, human", "conditions": "1 mM, 3 days; control 1.0", "procedure": "as §1, §2, §3"}, "[5]": {"tested_on": "R^II cAMP receptor protein (LS-174T)", "assay": "photoaffinity labelling of R^II cAMP receptor protein, LS-174T", "format": "cell-based, human", "conditions": "1 mM, 3 days; relative to control R^I", "procedure": "as §1, §2, §3"}, "MDA-MB-231": {"tested_on": "MDA-MB-231", "assay": "growth of MDA-MB-231 cells", "format": "cell-based", "conditions": "Homo sapiens, MDA-MB-231, 72 h; 1 mM, 3 days", "procedure": "as §1\n(§4) All breast cancer cell lines were grown in IMEM supplemented with 10% fetal bovine serum, 20 mM HEPES, penicillin-streptomycin, and extra glutamine. Colon carcinoma cell lines were grown in EMEM supplemented with 10% FBS, EMEM, NEAA, HEPES 20 mM, extra glutamine, and penicillin-streptomycin. The cells were grown at 37° C. in humidified incubators in an atmosphere of 5% CO2.\n(§5) For cell growth experiments, 2-3×10^5 cells/60 mm dish were seeded, and 24 hours later (Day 0), the medium was removed, and fresh medium and the additives were added then and every 48 hours thereafter The compounds of the present invention were added using 100× concentrated stock solutions. At desired times, cell counts in duplicate were performed on a Coulter counter after harvesting the cells with gentle trypsinization."}, "LS-174T": {"tested_on": "LS-174T", "assay": "growth of LS-174T cells", "format": "cell-based", "conditions": "Homo sapiens, LS174T, 72 h; 1 mM, 3 days", "procedure": "as §1, §4, §5"}, "[6]": {"tested_on": "R^I and R^II cAMP receptor proteins in breast (MDA-MB-231) and colon (LS-174T) cancer cells", "assay": "R^I and R^II cAMP receptor protein levels in breast and colon cancer lines (FIG. 6)", "format": "cell-based, human", "conditions": "DBcAMP 1 mM", "procedure": "as §1, §2"}, "[7]": {"tested_on": "p21 ras protein (MCF-7 cells)", "assay": "Western blotting of p21 ras protein in MCF-7 cells", "format": "cell-based, human", "conditions": "500 microM", "procedure": "Western blotting of p21 protein was performed as described below. […] V is cell lysate from Ha-MuSV-transformed NIH3T3 clone 13-3B-4. M, marker proteins of known molecular weight.\nCellular proteins present in cell extracts were separated by 12% SDS-PAGE and transferred to nitrocellulose sheets in transfer buffer (25 mM Tris, 192 mM glycine, 20% methanol, pH 7.4). Nitrocellulose sheets were washed and first incubated with 3% bovine serum albumin in NTE-NP40 (50 mM Tris-HCl, pH 7.5, 150 mM NaCl, 2 mM EDTA, 0.1% Nonidet P-40) for three hours at 37° C. and then sequentially incubated with medium containing p21 monoclonal antiserum Y13-259 directed against the Ha-MuSV-encoded p21 for sixteen hours at 4° C., rabbit anti-rat IgG for 2.5 hours in an ice-water bath, and 5×10^5 cpm/ml ^125 I-protein A for one hour in an ice-water bath. The nitrocellulose sheets were air-dried and exposed to Kodak XAR film for 12-36 hours at -20° C. Comparison of the resulting autoradiograms with others in which normal rat serum was substituted for p21 monoclonal antibody permitted identification of p21. To provide a reference p21, cell lysates were prepared from NIH 3T3 clone 13-3B-4 that had been transfected with Ha-MuSV DNA.\nThe levels of p21 protein are expressed relative to the p21 level in the untreated control cells, which is set equal to 1.0 O.D."}, "DMBA-1": {"tested_on": "DMBA-1", "assay": "growth of transplantable DMBA-1 rat mammary carcinoma", "format": "in vivo", "conditions": "pellet with 10 mg cAMP analogue, day 7", "procedure": "DMBA-1, a variant of primary hormonedependent DMBA tumor,\nhormoneindependent and transplantable.\n8Cl-cAMP and DBcAMP were given as a 20mg pellet consisting of 10 mg of […]"}, "[8]": {"tested_on": "DMBA-induced mammary carcinomas", "assay": "in vivo growth of DMBA-induced mammary carcinomas in rats", "set-up": "species or system rat", "conditions": "DBcAMP treatment", "procedure": "[…] |DMBA-induced mammary carcinomas in rats […] | 10 mg. cholesterol), was implanted on day 0 and day 14."}, "[9]": {"tested_on": "transplantable DMBA-1 and MNA-2 rat mammary carcinomas", "assay": "short-term assays with transplantable rat mammary carcinomas", "format": "in vivo", "conditions": "DB-cAMP pellet"}, "Molt-4": {"tested_on": "Molt-4", "assay": "growth inhibition of Molt-4", "format": "cell-based, human"}, "[10]": {"tested_on": "R^I cAMP receptor protein (Molt-4)", "assay": "R^I cAMP receptor protein in Molt-4 leukemic cells", "format": "cell-based, human", "conditions": "1 mmol/L, three days", "excerpt": "(§6) M marker proteins of known molecular weight. […] The resulting supernatants were used as cell lysates. […] ND=nondetectable."}, "c-myc protein": {"tested_on": "c-myc protein", "assay": "c-myc protein level, Western blotting (FIG. 9B)", "format": "cell-based, human", "conditions": "1 mmol/L, three days", "procedure": "The cells were grown in suspension culture in RPMI 1640 medium supplemented with 10% fetal bovine serum, penicillin (50 U/ml), streptomycin ([…]), 10 mmol/L HEPES buffer, and extra glutamine. […] Surface antigen analysis of HL-60 cells was performed by flow cytometry using a panel of monoclonal antibodies reactive with either myeloid cells or monocytic cells. Terminal deoxynucleotidyl transferase (TdT) was assayed by an immunoperoxidase method using a TdT fluorescence kit. Western blotting of c-myc protein was performed using c-myc antibody 15206D11 (Scripps Clinic and Research Foundation, LaJolla, Calif.).\nas §6"}, "[11]": {"tested_on": "hormone-dependent breast cancer lines", "conditions": "millimolar concentrations; previously reported; cited from earlier work"}, "[12]": {"tested_on": "human oat cell lung carcinoma cells", "conditions": "in vitro; cited from earlier work"}, "[13]": {"tested_on": "spindle cell sarcoma with multiple metastasis", "conditions": "cited from earlier work"}, "[14]": {"tested_on": "hormone-dependent mammary tumors / DMBA-induced mammary carcinomas", "conditions": "cited from earlier work"}, "neuroblastoma cells": {"tested_on": "neuroblastoma cells", "conditions": "conflicting studies; cited from earlier work"}, "[15]": {"tested_on": "cultured human fibroblasts", "conditions": "cited from earlier work"}}, "note": "Entries after “also recorded” stand apart in the source; their conditions may differ. Read-outs that look alike come from different tables or passages of the source."}
{"smiles": "CCCC(=O)Nc1ncnc2c1ncn2[C@@H]1O[C@@H]2COP(=O)(O)O[C@H]2[C@H]1OC(=O)CCC", "note": "[DBcAMP, N^6,O^2' -dibutyryl-cAMP]", "values": [{"measurement": "growth inhibition, in words", "setting": "[1]", "result": "no growth inhibition"}, {"measurement": "R^I relative level", "setting": "[2]", "result": "1.0 ± 0.1"}, {"measurement": "R^II relative level", "setting": "[3]", "result": "0.07 ± 0.01"}, {"measurement": "R^I relative level", "setting": "[4]", "result": "0.80 ± 0.10"}, {"measurement": "R^II relative level", "setting": "[5]", "result": "0.15 ± 0.02"}, {"measurement": "activity at 1000 µM", "setting": "MDA-MB-231", "result": 100, "unit": "%"}, {"measurement": "activity at 1000 µM", "setting": "LS-174T", "result": 85, "unit": "%"}, {"measurement": "R^I and R^II receptor levels, in words", "setting": "[6]", "result": "remained unchanged; also recorded: did not appreciably affect the R^I or R^II receptor levels"}, {"measurement": "p21 level, in words", "setting": "[7]", "result": "slight reduction in p21 level"}, {"measurement": "Change in mean tumor volume", "setting": "DMBA-1", "result": 2.60, "unit": "cm^3"}, {"measurement": "Change in mean tumor volume (%)", "setting": "DMBA-1; none = 100", "result": 99, "unit": "%"}, {"measurement": "tumor growth, in words", "setting": "[8]", "result": "only arrests this tumor growth without producing regression"}, {"measurement": "sensitivity of tumors", "setting": "[9]", "result": "completely resistant"}, {"measurement": "50% growth inhibition, in words", "setting": "Molt-4", "result": "50% growth inhibition could not be obtained"}, {"measurement": "R^I receptor protein, in words", "setting": "[10]", "result": "remained without appreciable change"}, {"measurement": "c-myc protein level, in words", "setting": "c-myc protein", "result": "did not affect the c-myc protein level"}, {"measurement": "growth inhibition, hormone-dependent breast cancer lines", "setting": "[11]", "result": "growth inhibition only in the hormone-dependent breast cancer lines"}, {"measurement": "differentiation", "setting": "[12]", "result": "differentiated into neurone-like cells"}, {"measurement": "tumor size", "setting": "[13]; 3-6 mg/kg i.v. daily over five hours, days 1-9 and 47-56", "result": "plateaued and even decreased during both infusion periods"}, {"measurement": "histology of tumors", "setting": "[13]; biopsies days 2, 14, 60", "result": "evidence of differentiation during the DBcAMP infusion"}, {"measurement": "cAMP binding and cAMP-dependent protein kinase activity", "setting": "[14]; cytosol and nuclei, during growth arrest", "result": "increase"}, {"measurement": "estrogen binding", "setting": "[14]; during growth arrest", "result": "estrogen binding decreases"}, {"measurement": "translated p21 protein", "setting": "[14]; preceding regression", "result": "sharp reduction"}, {"measurement": "tumor regression", "setting": "[14]; rat, in vivo", "result": "regression of hormone-dependent mammary tumors"}, {"measurement": "tumorigenicity", "setting": "neuroblastoma cells", "result": "reported to be decreased; also recorded: unaltered"}, {"measurement": "DNA synthesis", "setting": "[15]; added during first eight hours after serum addition", "result": "subsequent DNA synthesis was not delayed"}, {"measurement": "DNA synthesis", "setting": "[15]; added more than eight hours after serum addition", "result": "inhibitory"}]}
